Experimental data taken from patent US8999669B2, “Detection and visualization of the cell cycle in living cells” (Ludwig-Maximilians Universitat München, priority 2009, dated 2015).

System: HeLa cells
Test: mitosis assay with HeLa cell-line stably expressing PCNA3p16-GFP (clone 9.6)
Format: cell-based, human
Details: 0.1 μg/ml, 13 h time series, 30 min intervals
Experimental: HeLa cell-lines stably expressing PCNA3p16-GFP (clone 9.6; amino acid sequence of SEQ ID NO: 2 fused to GFP) were seeded at 50% confluency in live cell imaging chamber (ibidi μ-Slide 8 well). After incubation over night, normal growth medium (DMEM+10% FCS) was replaced with CO2 adapted live-cell medium (DMEM without phenol red+10% FCS+25 mM Hepes Buffer). Subsequently the imaging slide was placed on an INCell Analyzer 1000 (GE Healthcare) high content microscope equipped with an environmental control chamber, adjusted to 37° C. and 5% CO2. Images were acquired with an 20X/0.45 NA air objective using the appropriate filterset for the fluorescent protein GFP (HQ480—40X/HQ535—50M) and an exposure time of 750 ms. For the live cell imaging 15 fields of view per well were selected and a 13 hour time series started with time intervals of 30 min. After the first time point 0.1 μg/ml Colcemid was added directly to the medium of one well; control cells were left untreated (FIG. 11A). Colcemid is a mitotic inhibitor drug such as Colchicine, which depolymerises microtubules and limits microtubule formation (inactivates spindle fibre formation), thus arresting cells in metaphase.
The acquired data set was analyzed with the automated image evaluation and quantification program INCell workstation. […] The amount of mitotic cells per time point was counted and evaluated.

CN[C@H]1CCc2cc(OC)c(OC)c(OC)c2-c2ccc(OC)c(=O)cc21 [colcemid, Colcemid]
mitotic cells in treated cell population: increase of mitotic cells
